Results on one compound are retold here after patent US6071896A, “Suppression of thromboxane levels by percutaneous administration of aspirin” (Gundersen Clinic, Ltd., priority 1998, dated 2000).

Series [1] is described as follows: Hemoccults, gastrointestinal symptoms and side effects, Example 1. The format is in vivo, human. The settings on record: 5 volunteers, topical aspirin. The text has this: Five healthy adult volunteers (3 male, 2 female) were studied. Each refrained from ingesting oral aspirin for two weeks prior to study. Prior to treatment in accordance with the present invention, baseline thromboxane levels and hemoccults were obtained.
After base levels of thromboxane had been measured, the aspirin solution was first applied on the morning of Day 1 to the skin of the human subjects within an hour of mixing by rubbing the aspirin solution on the arms and/or chest of the subject. The application was repeated with freshly prepared solution for each of four additional mornings (Days 2-5) in the same manner. Between applications the subjects followed their normal schedule of bathing and showering. Eight hours after the fifth application (on Day 5) blood was drawn for salicylate levels and thromboxane levels to be determined. With one subject, blood was drawn for TXA2 levels every day just before application of a new aspirin solution (i.e., approximately 24 hours after application of the previous aspirin solution). Hemoccults were also tested.

Another series can be described thus: physchem. The format is physicochemical.

SMILES strings stand for the structures.

Take `CC(=O)Oc1ccccc1C(=O)O` [aspirin, acetyl salicylic acid]: in series [1], the “Gastrointestinal symptoms or other side effects” value is “No gastrointestinal symptoms or other side effects were noted or reported” and the Hemoccults entry is “negative”. Besides, the degraded at 24 h in “physchem” (24 hr, room temperature, propylene glycol and isopropyl alcohol or ethanol (1.7:1 v/v), 94 mg/ml, read-out: Salicylate detected in vehicle (aspirin stability)) is less than 1%. The “Stability of aspirin in vehicle” value in the series “physchem” (propylene glycol and alcohol vehicle, 24 hr room temperature) is “stable”.
